Structures can show the parent of a compound that is named as a salt.

The results in this text go back to patent publication US8222290B2, “Substituted N-phenyl-bipyrrolidine ureas and therapeutic use thereof” (Sanofi, priority 2007, dated 2012).

T1 sequence (Q865E1 1-445): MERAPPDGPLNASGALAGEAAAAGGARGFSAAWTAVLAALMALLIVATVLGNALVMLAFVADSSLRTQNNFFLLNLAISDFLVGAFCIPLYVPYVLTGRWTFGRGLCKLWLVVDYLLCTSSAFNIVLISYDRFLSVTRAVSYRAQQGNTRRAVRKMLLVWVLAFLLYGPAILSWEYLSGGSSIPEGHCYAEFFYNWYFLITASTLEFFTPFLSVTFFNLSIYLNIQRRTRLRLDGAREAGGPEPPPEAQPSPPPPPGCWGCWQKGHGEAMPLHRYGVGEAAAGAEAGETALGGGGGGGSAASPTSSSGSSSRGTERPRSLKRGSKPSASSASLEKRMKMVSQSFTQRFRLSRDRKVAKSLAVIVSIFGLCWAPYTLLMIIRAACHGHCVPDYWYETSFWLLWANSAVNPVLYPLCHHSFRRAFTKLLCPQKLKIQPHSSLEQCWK

This assay has as its target T1, rhesus H3 receptor (Macaca mulatta, UniProt Q865E1).
T1 construct: rhesus monkey (Macacca Mulatta) 445 amino acid H3 receptor; (Genbank #AY231164); expressed in transfected cells; host or cells: Flp-In T-REx 293 Cell Line (Invitrogen), pcDNA5/FRT/TO, induced with tetracycline; membranes
As to the kind of experiment: Rhesus H3 [3H]-Methylhistamine radioligand binding assay (SPA). On the set-up: species or system rhesus monkey (Macacca Mulatta). Particulars: [3H]-Methylhistamine 2 nM, rhesus H3 membranes, Cheng-Prusoff. As to the method: Rhesus H3 membranes were prepared from the Flp-In T-REx 293 Cell Line (Invitrogen) stably transfected with pcDNA5/FRT/TO (Invitrogen) containing the rhesus monkey (Macacca Mulatta) 445 amino acid H3 receptor. (Genbank #AY231164). Stably transfected cultures were amplified in tissue culture flasks by standard tissue culture methods and induced to express rhesus H3 by exposure to 500 ng/ml tetracycline (Cellgro) for 24 hours. After induction, cells were dissociated from flasks utilizing Cell Stripper (Cellgro). Cells were centrifuged (1K×g, 5 min) and pellet frozen in an ethanol-dry ice bath to disrupt cell membranes. Frozen cell pellet was re-suspended in 5 mM HEPES (pH 7.4, Invitrogen) at 10 ml/1000 cm2 of harvested cells. The cell suspension was drawn through an 18 gauge needle (2-3×) followed by a 23 gauge needle (2-3×) to further disrupt cell membranes. The cell suspension was centrifuged (40K×g, 30 min). Cell membrane pellet was re-suspended in 5 mM HEPES (pH 7.4, Invitrogen) at a final protein concentration of 10 mg/ml. Rhesus H3 membranes were stored under liquid nitrogen prior to use in [3H]-Methylhistamine and GTPγS radioligand binding assays.
Rhesus H3 radioligand binding assay was performed using rhesus H3 receptor membranes (prepared as described above), [3H]-Methylhistamine (Perkin Elmer) and WGA SPA beads (wheat germ agglutinin scintillation proximity assay) beads (Amersham). The assay was performed in 96-well Opti-Plates (Packard). Each reaction contained 50 μl rhesus H3 membranes (20-30 μg total protein), 50 μl WGA SPA beads (0.1 μg) and 50 μl of 83Ci/mmol [^3H]-Methylhistamine (final concentration 2 nM) and 50 μl of tested compound. The compounds of this invention and/or vehicle were diluted with binding buffer from 10 mM DMSO stocks. Assay plates were sealed with TopSeal (Perkin Elmer) and mixed on shaker (25° C., 1 hour). Assay plates were read on TopCount scintillation counter (Packard). Results were analyzed by Hill transformation and Ki values were determined by Cheng-Prusoff equation.
In general, Ki refers to the equilibrium dissociation constant of an inhibitor or competing ligand from its target. In turn, `Cc1cc(N2CCC(N3CCCC3C)C2)ccc1NC(=O)Nc1cc(Cl)cc(Cl)c1` (stereo not shown) [Example 15, 1-(3,5-Dichloro-phenyl)-3-[2-methyl-4-(2-methyl-[1,3′]bipyrrolidinyl-1′-yl)-phenyl]-urea trifluoroacetate] gave an inhibition constant (Ki) of 22.2 nM.
The compound `CC1CCCN1C1CCN(c2ccc(NC(=O)N3CCCCC3)cc2)C1` (stereo not shown) [Example 1, Piperidine-1-carboxylic acid [4-(2-methyl-[1,3′]bipyrrolidinyl-1′-yl)-phenyl]-amide trifluoroacetate] registered a Ki of 6 nM.
In the case of `Cc1cc(NC(=O)N2Cc3ccccc3C2)ccc1N1CCC(N2CCCC2C)C1` (stereo not shown) [Example 21, 1,3-Dihydro-isoindole-2-carboxylic acid [3-methyl-4-(2-methyl-[1,3′]bipyrrolidinyl-1′-yl)-phenyl]-amide trifluoroacetate], the affinity corresponds to a Ki of 8 nM.
Consider `CC1CCCN1C1CCN(c2ccc(NC(=O)Nc3cccc(C#N)c3)cc2)C1` (stereo not shown) [Example 7, 1-(3-Cyano-phenyl)-3-[4-(2-methyl-[1,3′]bipyrrolidinyl-1′-yl)-phenyl]-urea trifluoroacetate], for which the Ki amounted to 7.7 nM.
The value for `CC(=O)N1CCN(C(=O)Nc2ccc(N3CCC(N4CCCC4C)C3)cc2)CC1` (stereo not shown) [Example 13, 4-Acetyl-piperazine-1-carboxylic acid [4-(2-methyl-[1,3′]bipyrrolidinyl-1′-yl)-phenyl]-amide trifluoroacetate] was 34.1 nM.
As for `CC(=O)N(C)C1CCN(C(=O)Nc2ccc(N3CCC(N4CCCC4C)C3)cc2)C1` (stereo not shown) [Example 14, 3-(Acetyl-methyl-amino)-pyrrolidine-1-carboxylic acid [4-(2-methyl-[1,3′]bipyrrolidinyl-1′-yl)-phenyl]-amide trifluoroacetate], the Ki is 35.5 nM.
The value for `Cc1cc(N2CCC(N3CCCC3C)C2)ccc1NC(=O)N1CCN(C)CC1` (stereo not shown) [Example 17, 4-Methyl-piperazine-1-carboxylic acid [2-methyl-4-(2-methyl-[1,3′]bipyrrolidinyl-1′-yl)-phenyl]-amide trifluoroacetate] was 10.5 nM; that for `Cc1cc(NC(=O)Nc2cccc(C#N)c2)ccc1N1CCC(N2CCCC2C)C1` (stereo not shown) [Example 23, 1-(3-Cyano-phenyl)-3-[3-methyl-4-(2-methyl-[1,3′]bipyrrolidinyl-1′-yl)-phenyl]-urea trifluoroacetate] was 6.3 nM; that for `CC(=O)N(C)C1CCN(C(=O)Nc2ccc(N3CCC(N4CCCC4C)C3)c(C)c2)C1` (stereo not shown) [Example 2, 3-(Acetyl-methyl-amino)-pyrrolidine-1-carboxylic acid [3-methyl-4-(2-methyl-[1,3′]bipyrrolidinyl-1′-yl)-phenyl]-amide trifluoroacetate] was 89.7 nM.
In turn, `CC1CCCN1C1CCN(c2ccc(NC(=O)N3Cc4ccccc4C3)cc2)C1` (stereo not shown) [Example 6, 1,3-Dihydro-isoindole-2-carboxylic acid [4-(2-methyl-[1,3′]bipyrrolidinyl-1′-yl)-phenyl]-amide trifluoroacetate] registered an inhibitory constant (Ki) of 11.1 nM.
The compound `CC(=O)N1CCN(C(=O)Nc2ccc(N3CCC(N4CCCC4C)C3)c(C)c2)CC1` (stereo not shown) [Example 22, 4-Acetyl-piperazine-1-carboxylic acid [3-methyl-4-(2-methyl-[1,3′]bipyrrolidinyl-1′-yl)-phenyl]-amide trifluoroacetate] displayed a Ki of 23 nM.
In turn, `CC1CCCN1C1CCN(c2ccc(NC(=O)Nc3cc(Cl)cc(Cl)c3)cc2)C1` (stereo not shown) [Example 12, 1-(3,5-Dichloro-phenyl)-3-[4-(2-methyl-[1,3′]bipyrrolidinyl-1′-yl)-phenyl]-urea trifluoroacetate] displayed a Ki of 19.1 nM.
Take `Cc1cc(NC(=O)Nc2cc(Cl)cc(Cl)c2)ccc1N1CCC(N2CCCC2C)C1` (stereo not shown) [Example 19, 1-(3,5-Dichloro-phenyl)-3-[3-methyl-4-(2-methyl-[1,3′]bipyrrolidinyl-1′-yl)-phenyl]-urea trifluoroacetate]: the affinity, expressed as Ki, was 43 nM.
Take `CC1CCCN1C1CCN(c2ccc(NC(=O)N3CCN(c4ccccc4)CC3)cc2)C1` (stereo not shown) [Example 4, 4-Phenyl-piperazine-1-carboxylic acid [4-(2-methyl-[1,3′]bipyrrolidinyl-1′-yl)-phenyl]-amide trifluoroacetate]: the affinity corresponds to a Ki of 10.6 nM.
`Cc1cc(N2CCC(N3CCCC3C)C2)ccc1NC(=O)N1Cc2ccccc2C1` (stereo not shown) [Example 18, 1,3-Dihydro-isoindole-2-carboxylic acid [2-methyl-4-(2-methyl-[1,3′]bipyrrolidinyl-1′-yl)-phenyl]-amide trifluoroacetate] came in with a Ki of 10.8 nM.
In the case of `CC1CCCN1C1CCN(c2ccc(NC(=O)NCc3cccs3)cc2)C1` (stereo not shown) [Example 8, 1-[4-(2-Methyl-[1,3′]bipyrrolidinyl-1′-yl)-phenyl]-3-thiophen-2-ylmethyl-urea trifluoroacetate], the Ki amounted to 2 nM.
For the compound `Cc1cc(NC(=O)N2CCN(C)CC2)ccc1N1CCC(N2CCCC2C)C1` (stereo not shown) [Example 20, 4-Methyl-piperazine-1-carboxylic acid [3-methyl-4-(2-methyl-[1,3′]bipyrrolidinyl-1′-yl)-phenyl]-amide trifluoroacetate], the affinity, expressed as Ki, was 12.7 nM.
`CC1CCCN1C1CCN(c2ccc(NC(=O)N3CCN(C)CC3)cc2)C1` (stereo not shown) [Example 5, 4-Methyl-piperazine-1-carboxylic acid [4-(2-methyl-[1,3′]bipyrrolidinyl-1′-yl)-phenyl]-amide trifluoroacetate] displayed a Ki of 25.7 nM.
With `Cc1cc(NC(=O)NC2CCCCC2)ccc1N1CCC(N2CCCC2C)C1` (stereo not shown) [Example 10, 1-Cyclohexyl-3-[3-methyl-4-(2-methyl-[1,3′]bipyrrolidinyl-1′-yl)-phenyl]-urea trifluoroacetate], the affinity corresponds to a Ki of 11.2 nM.
On to `Cc1cc(NC(=O)NCc2cccs2)ccc1N1CCC(N2CCCC2C)C1` (stereo not shown) [Example 11, 1-[3-Methyl-4-(2-methyl-[1,3′]bipyrrolidinyl-1′-yl)-phenyl]-3-thiophen-2-ylmethyl-urea trifluoroacetate], for which the Ki was 8.4 nM.
Compound `CC1CCCN1C1CCN(c2ccc(NC(=O)NCc3cc(Cl)cc(Cl)c3)c(C(F)(F)F)c2)C1` (stereo not shown) [Example 25, 1-(3,5-Dichloro-benzyl)-3-[4-(2-methyl-[1,3′]bipyrrolidinyl-1′-yl)-2-trifluoromethyl-phenyl]-urea trifluoroacetate] yielded a Ki of 18.1 nM.
`CC1CCCN1C1CCN(c2ccc(NC(=O)NC3CCCCC3)cc2)C1` (stereo not shown) [Example 3, 1-Cyclohexyl-3-[4-(2-methyl-[1,3′]bipyrrolidinyl-1′-yl)-phenyl]-urea trifluoroacetate]: the Ki worked out at 4.1 nM.
On to `Cc1cc(NC(=O)N2CCCCC2)ccc1N1CCC(N2CCCC2C)C1` (stereo not shown) [Example 24, Piperidine-1-carboxylic acid [3-methyl-4-(2-methyl-[1,3′]bipyrrolidinyl-1′-yl)-phenyl]-amide trifluoroacetate], for which the affinity corresponds to a Ki of 29 nM.
`Cc1cc(NC(=O)NCc2cc(Cl)cc(Cl)c2)ccc1N1CCC(N2CCCC2C)C1` (stereo not shown) [Example 9, 1-(3,5-Dichloro-benzyl)-3-[3-methyl-4-(2-methyl-[1,3′]bipyrrolidinyl-1′-yl)-phenyl]-urea trifluoroacetate] yielded a Ki of 28.9 nM.
In the case of `Cc1cc(N2CCC(N3CCCC3C)C2)ccc1NC(=O)NC1CCCCC1` (stereo not shown) [Example 16, 1-Cyclohexyl-3-[2-methyl-4-(2-methyl-[1,3′]bipyrrolidinyl-1′-yl)-phenyl]-urea trifluoroacetate] it was 4.6 nM.
